Read-outs that look alike come from different tables or passages of the source.
Tests used:
H-125 or OCI-AML3 cells = assay: Cell viability (MTS) assay, simultaneous P15 peptide + cytostatic drug, 72 hours; assay type: cell-based, human
Description: Finally, the cell viability and the IC50 values were determined as above described in this invention.

H-125 cells = assay: Cell viability (MTS) assay, sequential: P15 pre-treatment, then cytostatic drug
SW948 cells [1] = assay: Cell viability (MTS) assay, P15 pre-treatment on intrinsic drug-refractory tumor cells; assay type: cell-based, human
SW948 cells [2] = assay: In vivo chemosensibilization, SW948 tumors in nude mice, sequential administration; details: P15 0.5 mg/kg/day i.p. 5 days, then cytostatic 5 mg/kg/day 5 days, FIG. 2A-2C
Description: (§1) The animal model used in this invention was based on the implantation of human tumors in nude mice (Nu/Nu, BalBC). Briefly, 5×10^6 H-125 or OCI-AML3 cells were suspended in Phosphate Buffer Solution (PBS) and inoculated subcutaneously. After tumor debut (approx. 30 mm^3), treatment was started using the pharmaceutical combination described in this invention. To evaluate the antitumor effect of the pharmaceutical combination, the tumor mass volume was measured and the respective volume was calculated using the formule: V=widght^2×lenght/2.
For this purpose, 5×10^6 SW948 cells were implanted in nude mice as previously described in this invention. After tumor debut the pharmaceutical combination was sequentially administered as follow: First, the P15 peptide ingredient was administered intraperitoneal at 0.5 mg/kg/day during 5 days. Subsequently, cisplatin (FIG. 2A), Paclitaxel (FIG. 2B) and doxorubicin (FIG. 2C) were administered at 5 mg/kg/day during further 5 days. […] These findings also provide the evidences that the pharmaceutical combination in this invention is able to bypass the commonly observed intrinsic tumor resistance when the ingredients are sequentially administered.

OCI-AML3 cells = assay: Animal model of AML, P15 + anti-leukemic chemotherapeutics; assay type: in vivo, nude mice (Nu/Nu, BalBC); details: combination with P15, animal model of AML; FIG. 3
Description: as §1, with “Briefly, 5×10^6 H-125 or OCI-AML3 cells were suspended in Phosphate Buffer Solution (PBS) and inoculated subcutaneously.” left out
(§2) After tumor debut, the ingredients of the pharmaceutical combination were administered as follow: The P15 peptide in saline solution was administered intraperitoneal at 0.5 mg/kg/day during 5 days. Concomitantly, intraperitoneal injection of cisplatin (FIG. 1A), or cyclophosphamide (FIG. 1B) or Mitomycin (FIG. 1C) were performed at 1 mg/kg/day in the same frequency. The cytostatic drugs are also solved in saline solution. Tumor volume was registered as described above in this invention.

[3] = tested on: H-125 or OCI-AML3 tumor cells; assay: Cancer animal model, human tumor xenografted in nude mice, simultaneous administration; assay type: in vivo, nude mice (Nu/Nu, BalBC); details: for interaction with P15, antitumor effect in vivo: administered along with P15, FIG. 4; for antitumor effect (tumor volume): cytostatic 1 mg/kg/day i.p. concomitantly with P15 0.5 mg/kg/day i.p., 5 days, FIG. 1A-1C
Description: as §1, with “Briefly, 5×10^6 H-125 or OCI-AML3 cells were suspended in Phosphate Buffer Solution (PBS) and inoculated subcutaneously.” left out
as §2

Nucleofosmin = assay: P15-regulated protein profile, nuclear extracts of H-125 cells; assay type: cell-based, human; details: down-regulated Nucleofosmin, P15 40 minutes
T-Plastin = assay: as above; assay type: cell-based, human; details: down-regulated T-Plastin, P15 40 minutes
[4] = tested on: Y-box1 transcription factor; assay: as above; assay type: cell-based, human; details: down-regulated Y-box1 transcription factor, P15 40 minutes
Eritropoietin precursor = assay: as above; assay type: cell-based, human; details: down-regulated Eritropoietin precursor, P15 40 minutes
[5] = tested on: Gliceraldehyde 6-phosphate deshydrogenase; details: down-regulated Gliceraldehyde 6-phosphate deshydrogenase; H-125 cells, P15 40 minutes
Description: (§3) H-125 cells were treated or not with the P15 peptide ingredient of the pharmaceutical combination described in this invention during 40 minutes. Subsequently, cell monolayers were washed with PBS and cells were scrapped from the surface. […] To analyze the P15-regulated proteins, the respective nuclear protein extracts were alternatively solved by 2D bidimensional gels (pH 4-7) and/or Liquid chromatography (nano HPLC) coupled to Mass spectrometer.
(§4) For this purpose, nuclear protein extracts coming from H-125 cells treated or not with the P15 peptide ingredient were analyzed as previously described in this invention.

[6] = tested on: Glucose-6-phosphate isomerase; details: down-regulated Glucose-6-phosphate isomerase; H-125 cells, P15 40 minutes
Description: as §3, §4

[7] = tested on: Heat Shock Proteins (HSP-27, -70 y -90); details: down-regulated Heat Shock Proteins (HSP-27, -70 y -90); H-125 cells, P15 40 minutes
Description: as §3, §4

Piruvate kinase = details: down-regulated Piruvate kinase; H-125 cells, P15 40 minutes
Description: as §3, §4

[8] = tested on: Proteasome activator complex; details: down-regulated Proteasome activator complex; H-125 cells, P15 40 minutes
Description: as §3, §4

[9] = tested on: S-gluthathione transferase; details: down-regulated S-gluthathione transferase; H-125 cells, P15 40 minutes
Description: as §3, §4

Tubulin alpha-1 = details: up-regulated Tubulin alpha-1; H-125 cells, P15 40 minutes
Description: as §3, §4

Tubulin beta-2 = details: up-regulated Tubulin beta-2; H-125 cells, P15 40 minutes
Description: as §3, §4

Tubulin beta-3 = details: up-regulated Tubulin beta-3; H-125 cells, P15 40 minutes
Description: as §3, §4

[10] = tested on: Ubiquitin activated E1 enzyme; details: down-regulated Ubiquitin activated E1 enzyme; H-125 cells, P15 40 minutes
Description: as §3, §4

[11] = tested on: Translational controled tumor protein; assay: P15-regulated protein profile, nuclear extracts of H-125 cells; assay type: cell-based, human; details: down-regulated Translational controled tumor protein, P15 40 minutes
Prohibitin = assay: as above; assay type: cell-based, human; details: up-regulated Prohibitin, P15 40 minutes
[12] = H-125 or OCI-AML3 cells, 72 hours, simultaneous P15 50 μM, read-out: IC50, Cytostatic drug + P15 (50 μM)
[13] = Homo sapiens, H-125 or OCI-AML3 cells, 72 hours, no P15, read-out: IC50, Cytostatic drug alone
[14] = read-out: IC50, Cytostatic drug + P15 (10 μM), H-125 or OCI-AML3 cells, 72 hours, simultaneous P15 10 μM
[15] = Homo sapiens, NCI-H125, read-out: IC50, Cytostatic drug alone
[16] = Homo sapiens, P15 pre-treatment, read-out: IC50, Cytostatic drug + P15 pre-treatment
[17] = Homo sapiens, no P15 pre-treatment, read-out: IC50, Cytostatic drug alone
[18] = H-125 or OCI-AML3 cells, 72 hours, no P15, read-out: IC50, Cytostatic drug alone
[19] = read-out: IC50, Cytostatic drug alone, H-125 cells, 72 hours, no P15 pre-treatment

Compound	IC50 (H-125 or OCI-AML3 cells; [12]) [µM]	IC50 (H-125 or OCI-AML3 cells; [13]) [µM]	IC50 (H-125 or OCI-AML3 cells; [14]) [µM]	IC50 (H-125 cells; [15]) [µM]	further results
Nc1nc(F)nc2c1ncn2[C@@H]1O[C@H](CO)[C@@H](O)[C@@H]1O [Fludarabine, fludarabine]	0.05	0.87	0.096	0.865	–
O=C1c2c(O)ccc(O)c2C(=O)c2c(NCCNCCO)ccc(NCCNCCO)c21 [Mitoxantrone, mitoxantrone]	0.032	0.754	0.064	0.7	interaction with P15, antitumor effect in vivo (OCI-AML3 cells): great synergistic interaction
N.N.O=C([O-])C1(C(=O)[O-])CCC1.[Pt+2] [Carboplatin, carboplatin]	0.036	–	0.07	–	IC50 (H-125 or OCI-AML3 cells; [18]): 0.65 µM; interaction with P15, antitumor effect in vivo [3]: synergistic interactions; IC50 (H-125 cells; [19]): 0.45 µM
CWMSPRHLGTC [P15]	–	–	–	–	Inhibition rate (Nucleofosmin): 48; Inhibition rate (T-Plastin): 3.34; Inhibition rate [4]: 3.33; Inhibition rate (Eritropoietin precursor): 120; Inhibition rate [5]: 6.62; Inhibition rate [6]: 8.53; Inhibition rate [7]: 2.5; Inhibition rate (Piruvate kinase): 8.34; Inhibition rate [8]: 3.35; Inhibition rate [9]: 4.87; Activation rate (Tubulin alpha-1): 3.23; Activation rate (Tubulin beta-2): 2.56; Activation rate (Tubulin beta-3): 3.15; Inhibition rate [10]: 2.49; Inhibition rate [11]: 4.32; Activation rate (Prohibitin): 2.28
N.N.[Cl][Pt][Cl] [Cisplatin, cisplatin]	0.04	–	0.53	–	IC50 (H-125 or OCI-AML3 cells; [18]): 0.72 µM; IC50 (SW948 cells [1]; P15 pre-treatment, read-out: IC50, Cytostatic drug + P15 pre-treatment): 120 µM; IC50 (SW948 cells [1]; no P15 pre-treatment, read-out: IC50, Cytostatic drug alone): ≥ 1000 µM; antitumor effect (tumor volume) [3]: complete tumor regression; chemosensibilization in vivo (tumor response to cytostatic) (SW948 cells [2]): revert the chemorefractory phenotype; IC50 (H-125 cells; [19]): 0.72 µM
CO[C@@]12[C@H](COC(N)=O)C3=C(C(=O)C(C)=C(N)C3=O)N1C[C@@H]1N[C@@H]12 [Mitomycin C, mitomycin C]	0.009	0.994	0.093	0.994	antitumor effect (tumor volume) [3]: complete tumor regression
O=P1(N(CCCl)CCCl)NCCCO1 (stereo not shown) [Cyclophosphamide, cyclophosphamide]	–	–	–	2.4	IC50 (H-125 or OCI-AML3 cells; Homo sapiens, 72 h, read-out: IC50, Cytostatic drug alone): 2.4 µM; IC50 (H-125 or OCI-AML3 cells; read-out: IC50, Cytostatic drug + P15 (10 μM)): 1 µM; IC50 (H-125 or OCI-AML3 cells; read-out: IC50, Cytostatic drug + P15 (50 μM)): 0.085 µM; antitumor effect (tumor volume) [3]: complete tumor regression; IC50 (H-125 cells; read-out: IC50, Cytostatic drug + P15 pre-treatment): 0.1 µM

Continued, in another order:

IC50 (H-125 or OCI-AML3 cells; [12]) [µM]	IC50 (H-125 or OCI-AML3 cells; [13]) [µM]	IC50 (H-125 or OCI-AML3 cells; [14]) [µM]	Compound	IC50 (H-125 cells; [15]) [µM]	further results
0.7	2	1.2	CC(C)C[C@H](NC(=O)[C@H](Cc1ccccc1)NC(=O)c1cnccn1)B(O)O [Velcade, Bortezomib]	2	–
0.003	0.017	0.008	CC(=O)O[C@H]1C(=O)[C@@]2(C)[C@H]([C@H](OC(=O)c3ccccc3)[C@]3(O)C[C@H](OC(=O)[C@H](O)[C@@H](NC(=O)c4ccccc4)c4ccccc4)C(C)=C1C3(C)C)[C@]1(OC(C)=O)CO[C@@H]1C[C@@H]2O [Paclitaxel, paclitaxel]	0.017	IC50 (SW948 cells [1]; [16]): 97 µM; IC50 (SW948 cells [1]; [17]): ≥ 1000 µM; chemosensibilization in vivo (tumor response to cytostatic) (SW948 cells [2]): revert the chemorefractory phenotype
0.068	1	0.11	Nc1ccn([C@@H]2O[C@H](CO)[C@@H](O)[C@@H]2O)c(=O)n1 [Cytarabine (AraC), cytarabine]	0.98	interaction with P15, antitumor effect in vivo (OCI-AML3 cells): great synergistic interaction
0.008	0.856	0.1	CC[C@]1(O)C[C@H]2CN(CCc3c([nH]c4ccccc34)[C@@](C(=O)OC)(c3cc4c(cc3OC)N(C=O)[C@H]3[C@@](O)(C(=O)OC)[C@H](OC(C)=O)[C@]5(CC)C=CCN6CC[C@]43[C@@H]65)C2)C1 [Vincristin, vincristin]	0.856	–
0.06	1.2	0.42	O=c1[nH]cc(F)c(=O)[nH]1 [5-Fluorouracil, 5-fluorouracil]	1.2	–
0.076	0.423	0.2	COc1cccc2c1C(=O)c1c(O)c3c(c(O)c1C2=O)C[C@@](O)(C(=O)CO)C[C@@H]3O[C@H]1C[C@H](N)[C@H](O)[C@H](C)O1 [Doxorubicin, doxorubicin]	0.423	IC50 (SW948 cells [1]; [16]): 320 µM; IC50 (SW948 cells [1]; [17]): ≥ 1000 µM; chemosensibilization in vivo (tumor response to cytostatic) (SW948 cells [2]): revert the chemorefractory phenotype
0.02	0.78	0.06	COc1cc([C@@H]2c3cc4c(cc3[C@@H](O[C@@H]3O[C@@H]5CO[C@@H](C)O[C@H]5[C@H](O)[C@H]3O)[C@H]3COC(=O)[C@H]23)OCO4)cc(OC)c1O [Etoposide, etoposide]	0.561	interaction with P15, antitumor effect in vivo [3]: synergistic interactions
